Results taken from patent publication US20080028486A1, “Aluminium Tolerant Barley” (COMMONWEALTH SCIENTIFIC AND INDUSTRIAL RESEARCH ORGANISATION, priority 2004, published 2008).

Legend:
[1] = tested on: transgenic barley T0 lines 4, 5 and 6 expressing ALMT1; experiment: Al tolerance assay: root elongation in hydroponic culture, ALMT1 transgenic barley; type: in vivo, Hordeum vulgare
Method: (§1) Plants in hydroponic culture were assessed for Al tolerance using a hydroponic solution described as follows, supplemented with a range of AlCl3 concentrations. The hydroponic solution was made with distilled or deionised water containing 500 μM KNO3, 500 μM CaCl2, 500 μM NH4NO3, 150 μM MgSO4, 100 μM KH2PO4, 2 μM Fe:EDTA, 11 μM H3BO3, 2 μM MnCl2, 0.35 μM ZnCl2 and 0.2 μM CuCl2 adjusted to pH 5.5. The Al screening solution was the same solution as above except it contained 10 μM KH2PO4 instead of 100 μM, 2 μM FeCl3 instead of Fe:EDTA and was adjusted to pH 4.3 instead of 5.5, and was supplemented with AlCl3 at the stated concentration. The plants were grown using these solutions at a temperature of 18-25° C., usually at 20° C.
(§2) Al tolerance was assessed by determining root elongation of plants grown in hydroponic culture in the continual presence of added Al. The three barley T0 lines that were transformed with ALMT1 and expressing the transgene in the roots were tested in a range of Al levels. […] The ALMT1 gene therefore provided a dramatic enhancement of Al tolerance on the barley plants, to a level that has not been seen previously.

[2] = tested on: root apices of transgenic barley expressing ALMT1; experiment: K+ efflux from excised root apices of transgenic barley line 5; type: cell-based, Hordeum vulgare; settings: line 5 excised apices, 50 μM Al, mean ±SE, n=4
Method: Al-activated malate efflux from root apices of transgenic barley expressing ALMT1 was accompanied by the efflux of K^+. Net K^+ effluxes from excised apices of line 5 were calculated by subtracting corresponding values obtained for the vector only control line resulting in an efflux of 0.4±0.3 nmoles K^+/h/apex in the absence of Al and an efflux of 5.2±1.0 nmoles K^+/h/apex in the presence of 50 μM Al (means ±SE; n=4).

[3] = tested on: control barley plants (wild type and vector only, cv Golden Promise); experiment: Al tolerance assay: root elongation in hydroponic culture, control plants; type: in vivo, Hordeum vulgare
Method: as §1, §2

[4] = tested on: root apices of transgenic barley expressing ALMT1; experiment: Malate efflux from excised root apices of transgenic barley expressing ALMT1; type: cell-based, Hordeum vulgare; settings: for activation of malate efflux: 50 μM La or Er in basal solution
Method: FIG. 4—Properties of malate efflux from root apices of transgenic barley expressing ALMT1. • (A) Effect of Al concentration on malate efflux (nmoles/h/apex). Excised root apices from ALMT1 line 5 (solid circles) were exposed to Al treatments from 0 to 50 μM in basal solution for 1 h. Error bars show ±standard errors of the means (n=3). The solid squares show efflux from root apices of the control line transformed with the empty vector. • (B) Effects of niflumic acid (nif; 0 to 100 μM), La (50 μM), Er (50 μM) and basal solution (0.2 mM CaCl2 pH 4.3) on malate efflux from root apices of line 5. Excised root apices from line 5 were exposed to the various treatments in basal solution for 1 h. Error bars show ±standard errors of the means (n=3).
Malate efflux from root segments was assayed using a modification of methods described by Ryan et al. (1995a). Unless stated otherwise, 4 root apices 3 mm long were incubated with shaking in 1 ml of 0.2 mM CaCl2 (pH 4.3) for approximately 1 h. The apices were then rinsed with the CaCl2 solution three times and replaced with 1 ml of the same solution (control) or 1 ml of treatment solution (0.2 mM CaCl2 with added treatment at pH 4.3). After an incubation that typically lasted for 1 h, the solution was removed, dried and the residue re-suspended in 200 μl of buffer used for the spectrographic assay of malate (0.25 M glycine, 0.20 M hydrazine and 2.7 mM NAD adjusted to pH 9). A subsample (100 μl) was transferred to a micro-cuvette and the increase in absorbance at 340 nm measured 6 min after addition of 1 μl of malate dehydrogenase (5 mg/ml) was used to calculate the amount of malate by comparison to a standard curve.

## [Cl][Al]([Cl])[Cl] [AlCl3, aluminium chloride]
[1]; ALMT1 line 5, hydroponic culture, 20M AlCl3 as printed
  inhibition of root growth: did not show significant inhibition of root growth
[1]; ALMT1 transgenic plants, hydroponic culture, 2, 6 or 12 μM AlCl3
  inhibition of root growth: did not exhibit any significant inhibition of root growth
[2]
  net K+ efflux (vector only control values subtracted): 5.2±1.0 nmoles K+/h/apex
[3]; 2 μM AlCl3
  inhibition of root growth: 50%
[3]; 6 μM AlCl3
  inhibition of root growth: 85-90%
[4]; Al-activated efflux, transgenic barley
  rate of malate efflux from root apices: approx. 1 nmole/apex/h
[4]; line 5 root apices, Al 0 to 50 μM in basal solution (0.2 mM CaCl2 pH 4.3), 1 h
  added Al concentration up to which malate efflux increases before starting to level off: about 25 μM

## [La] [Lanthanum]
[4]; line 5 root apices, 1 h
  activation of malate efflux: ineffective in activating malate efflux

## [Er] [erbium]
[4]; line 5 root apices, 1 h
  activation of malate efflux: capable of eliciting malate efflux, albeit at a lower level than observed for Al

## O=C(O)c1cccnc1Nc1cccc(C(F)(F)F)c1 [niflumic acid]
[4]; line 5 root apices, niflumic acid 0 to 100 μM, basal solution, 1 h
  effect on malate efflux: inhibited
